According to patent publication US9132140B2, “Boronic acid derivatives and therapeutic uses thereof” (Rempex Pharmaceuticals, Inc., priority 2013, dated 2015):

Assays:
NDM-1 = NDM-1 (Klebsiella pneumoniae, UniProt C7C422); test: biochemical; conditions: substrate imipenem 100 μM
KP1004 (KPC TEM SHV) = type: cell-based, Klebsiella pneumoniae
Excerpt: (§1) Several strains simultaneously expressing both class A and class B carbapenemases, which were constructed using conjugation, were also included in the panel.

KP1014 (Vim-1, TEM, SHV) = type: cell-based, Klebsiella pneumoniae
Excerpt: as §1

KP1054 (VIM-1, SHV-11) = type: cell-based, Klebsiella pneumoniae
Excerpt: as §1

KP1059 (VIM-1, SHV-11) = type: cell-based, Klebsiella pneumoniae
Excerpt: as §1

KP1061 (KPC TEM SHV) = type: cell-based, Klebsiella pneumoniae
Excerpt: as §1

KP1064 (KPC TEM SHV) = type: cell-based, Klebsiella pneumoniae
Excerpt: as §1

KP1065 (VIM-1, SHV-11) = type: cell-based, Klebsiella pneumoniae
Excerpt: as §1

KP1070 (KPC TEM SHV) = type: cell-based, Klebsiella pneumoniae
Excerpt: as §1

[1] = tested on: KP1081 (NDM-1, TEM-1, SHV-11, CMY-6, CTX-M-15); type: cell-based, Klebsiella pneumoniae
Excerpt: as §1

[2] = tested on: KP1084 (KPC-3, SHV-11, TEM-1); type: cell-based, Klebsiella pneumoniae
Excerpt: as §1

KP1097 (IMP-1 SHV) = type: cell-based, Klebsiella pneumoniae
Excerpt: as §1

KP1098 (IMP-26 TEM SHV) = type: cell-based, Klebsiella pneumoniae
Excerpt: as §1

KPM1097 (NDM, KPC) = type: cell-based, Klebsiella pneumoniae
Excerpt: as §1

KPM1099 (NDM, KPC) = type: cell-based, Klebsiella pneumoniae
Excerpt: as §1

KPM1107 (NDM, KPC) = type: cell-based, Klebsiella pneumoniae
Excerpt: as §1

KPM1108 (NDM, KPC) = type: cell-based, Klebsiella pneumoniae
Excerpt: as §1

Sequence of NDM-1 (C7C422 29-270, looked up, species assumed): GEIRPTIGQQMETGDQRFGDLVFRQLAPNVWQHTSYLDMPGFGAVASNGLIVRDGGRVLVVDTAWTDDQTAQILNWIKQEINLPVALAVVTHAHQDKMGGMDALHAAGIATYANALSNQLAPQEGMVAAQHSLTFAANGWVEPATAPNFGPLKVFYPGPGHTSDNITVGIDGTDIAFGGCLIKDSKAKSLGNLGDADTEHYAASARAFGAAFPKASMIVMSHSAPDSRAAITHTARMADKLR

Nn1cnnc1S[C@H]1Cc2cccc(C(=O)O)c2OB1O [Compound 14, (R)-3-(4-amino-4H-1,2,4-triazol-3-ylthio)-2-hydroxy-3,4-dihydro-2H-benzo[e][1,2]oxaborinine-8-carboxylic acid]
Ki (NDM-1): 0.01 to 0.1 µM | Imipenem + 14 MIC (KP1004 (KPC TEM SHV)): X (key: X: MIC of less than 1 μg/mL; Y: MIC of 1 μg/mL to 10 μg/mL; Z: MIC of greater than 10 μg/mL) | Meropenem + 14 MIC (KP1004 (KPC TEM SHV)): X (key: X: MIC of less than 1 μg/mL; Y: MIC of 1 μg/mL to 10 μg/mL; Z: MIC of greater than 10 μg/mL) | Imipenem + 14 MIC (KP1014 (Vim-1, TEM, SHV)): X (key: X: MIC of less than 1 μg/mL; Y: MIC of 1 μg/mL to 10 μg/mL; Z: MIC of greater than 10 μg/mL) | Meropenem + 14 MIC (KP1014 (Vim-1, TEM, SHV)): X (key: X: MIC of less than 1 μg/mL; Y: MIC of 1 μg/mL to 10 μg/mL; Z: MIC of greater than 10 μg/mL) | Imipenem + 14 MIC (KP1054 (VIM-1, SHV-11)): X (key: X: MIC of less than 1 μg/mL; Y: MIC of 1 μg/mL to 10 μg/mL; Z: MIC of greater than 10 μg/mL) | Meropenem + 14 MIC (KP1054 (VIM-1, SHV-11)): X (key: X: MIC of less than 1 μg/mL; Y: MIC of 1 μg/mL to 10 μg/mL; Z: MIC of greater than 10 μg/mL) | Imipenem + 14 MIC (KP1059 (VIM-1, SHV-11)): Y (key: X: MIC of less than 1 μg/mL; Y: MIC of 1 μg/mL to 10 μg/mL; Z: MIC of greater than 10 μg/mL) | Meropenem + 14 MIC (KP1059 (VIM-1, SHV-11)): Y (key: X: MIC of less than 1 μg/mL; Y: MIC of 1 μg/mL to 10 μg/mL; Z: MIC of greater than 10 μg/mL) | Imipenem + 14 MIC (KP1061 (KPC TEM SHV)): X (key: X: MIC of less than 1 μg/mL; Y: MIC of 1 μg/mL to 10 μg/mL; Z: MIC of greater than 10 μg/mL) | Meropenem + 14 MIC (KP1061 (KPC TEM SHV)): X (key: X: MIC of less than 1 μg/mL; Y: MIC of 1 μg/mL to 10 μg/mL; Z: MIC of greater than 10 μg/mL) | Imipenem + 14 MIC (KP1064 (KPC TEM SHV)): X (key: X: MIC of less than 1 μg/mL; Y: MIC of 1 μg/mL to 10 μg/mL; Z: MIC of greater than 10 μg/mL) | Meropenem + 14 MIC (KP1064 (KPC TEM SHV)): Y (key: X: MIC of less than 1 μg/mL; Y: MIC of 1 μg/mL to 10 μg/mL; Z: MIC of greater than 10 μg/mL) | Imipenem + 14 MIC (KP1065 (VIM-1, SHV-11)): X (key: X: MIC of less than 1 μg/mL; Y: MIC of 1 μg/mL to 10 μg/mL; Z: MIC of greater than 10 μg/mL) | Meropenem + 14 MIC (KP1065 (VIM-1, SHV-11)): Z (key: X: MIC of less than 1 μg/mL; Y: MIC of 1 μg/mL to 10 μg/mL; Z: MIC of greater than 10 μg/mL) | Imipenem + 14 MIC (KP1070 (KPC TEM SHV)): X (key: X: MIC of less than 1 μg/mL; Y: MIC of 1 μg/mL to 10 μg/mL; Z: MIC of greater than 10 μg/mL) | Meropenem + 14 MIC (KP1070 (KPC TEM SHV)): X (key: X: MIC of less than 1 μg/mL; Y: MIC of 1 μg/mL to 10 μg/mL; Z: MIC of greater than 10 μg/mL) | Imipenem + 14 MIC [1]: X (key: X: MIC of less than 1 μg/mL; Y: MIC of 1 μg/mL to 10 μg/mL; Z: MIC of greater than 10 μg/mL) | Meropenem + 14 MIC [1]: X (key: X: MIC of less than 1 μg/mL; Y: MIC of 1 μg/mL to 10 μg/mL; Z: MIC of greater than 10 μg/mL) | Imipenem + 14 MIC [2]: Y (key: X: MIC of less than 1 μg/mL; Y: MIC of 1 μg/mL to 10 μg/mL; Z: MIC of greater than 10 μg/mL) | Meropenem + 14 MIC [2]: Y (key: X: MIC of less than 1 μg/mL; Y: MIC of 1 μg/mL to 10 μg/mL; Z: MIC of greater than 10 μg/mL) | Imipenem + 14 MIC (KP1097 (IMP-1 SHV)): X (key: X: MIC of less than 1 μg/mL; Y: MIC of 1 μg/mL to 10 μg/mL; Z: MIC of greater than 10 μg/mL) | Meropenem + 14 MIC (KP1097 (IMP-1 SHV)): Y (key: X: MIC of less than 1 μg/mL; Y: MIC of 1 μg/mL to 10 μg/mL; Z: MIC of greater than 10 μg/mL) | Imipenem + 14 MIC (KP1098 (IMP-26 TEM SHV)): Y (key: X: MIC of less than 1 μg/mL; Y: MIC of 1 μg/mL to 10 μg/mL; Z: MIC of greater than 10 μg/mL) | Meropenem + 14 MIC (KP1098 (IMP-26 TEM SHV)): Z (key: X: MIC of less than 1 μg/mL; Y: MIC of 1 μg/mL to 10 μg/mL; Z: MIC of greater than 10 μg/mL) | Imipenem + 14 MIC (KPM1097 (NDM, KPC)): X (key: X: MIC of less than 1 μg/mL; Y: MIC of 1 μg/mL to 10 μg/mL; Z: MIC of greater than 10 μg/mL) | Meropenem + 14 MIC (KPM1097 (NDM, KPC)): X (key: X: MIC of less than 1 μg/mL; Y: MIC of 1 μg/mL to 10 μg/mL; Z: MIC of greater than 10 μg/mL) | Imipenem + 14 MIC (KPM1099 (NDM, KPC)): Y (key: X: MIC of less than 1 μg/mL; Y: MIC of 1 μg/mL to 10 μg/mL; Z: MIC of greater than 10 μg/mL) | Meropenem + 14 MIC (KPM1099 (NDM, KPC)): Y (key: X: MIC of less than 1 μg/mL; Y: MIC of 1 μg/mL to 10 μg/mL; Z: MIC of greater than 10 μg/mL) | Imipenem + 14 MIC (KPM1107 (NDM, KPC)): X (key: X: MIC of less than 1 μg/mL; Y: MIC of 1 μg/mL to 10 μg/mL; Z: MIC of greater than 10 μg/mL) | Meropenem + 14 MIC (KPM1107 (NDM, KPC)): X (key: X: MIC of less than 1 μg/mL; Y: MIC of 1 μg/mL to 10 μg/mL; Z: MIC of greater than 10 μg/mL) | Imipenem + 14 MIC (KPM1108 (NDM, KPC)): Y (key: X: MIC of less than 1 μg/mL; Y: MIC of 1 μg/mL to 10 μg/mL; Z: MIC of greater than 10 μg/mL)
